From patent US20250222063A1, “TOPICAL FORMULATION FOR USE IN THE TREATMENT OR PREVENTION OF DRY ITCHY SKIN” (MC2 THERAPEUTICS LTD, priority 2022, published 2025)
Non-standard residues stand in square brackets, D forms with d. Residues, ends and D or L forms follow the SMILES beside them. Sar = CNCC(=O)O

Assays:
[1] = test system: bovine serum albumin (BSA); test: In vitro protein carbamylation assay (14C-potassium cyanate, scintillation counting); type: biochemical; details: 10 mM nucleophile, 75 μM BSA, 25 μM 14C-Potassium Cyanate, 37° C., 72 hours, n=3
Protocol: The tests were performed as described below. 200 μL of a 0.5% BSA solution, 200 μL of test solution and 100 μL of a 5 μCi/mL 14 C-Potassium Cyanate solution was mixed in an Eppendorf tube (corresponding to a final concentration of 75 μM BSA, 25 μM 14 C-Potassium Cyanate, and 10 mM nucleophile). Samples run in triplicates (n=3). The Eppendorf tubes were incubated at 37° C. for 72 hours.
After incubation a volume of 100 μL of each sample was transferred to a new Eppendorf tube containing 100 μL of a 10% trichloroacetic acid (TCA) and kept at 4° C. overnight (for precipitation of BSA). Subsequently, the precipitated BSA was separated from the buffer by centrifugation (10000 rpm, 30 seconds). The supernatant was removed and the BSA pellet 10 was resuspended in 200 μL of a 10% solution of cold TCA (4° C.). The pellet was recovered by centrifugation (10000 rpm, 30 seconds) and supernatant was discarded. The BSA pellet was resuspended in 100 μL purified water (MilliQ) and transferred to a scintillation vial. The Eppendorf tube (previously containing the BSA pellet) was rinsed with an additional 100 μL purified water which al was transferred to the relevant scintillation vial.

[2] = Aqueous stability in HBSS buffer at 40° C. (HPLC-UV); type: physicochemical; details: 3% wt/wt or 0.4% wt/wt in HBSS buffer, glass vials, 40° C., HPLC-UV, in % (unit assumed)
Protocol: An important aspect of formulating a stable topical product. Data in Table 4 below gives 1 month and 3 month stability data at 40° C. Compounds were dissolved at 3% wt/wt or 0.4% wt/wt (if 3% was not possible) in HBSS buffer and stored in glass vials at temperature. Samples were subsequently analyzed by HPLC-UV.

[3] = Skin homogenate study (degradation half-life, LC-MS/MS); type: in vitro ADME, human; details: pooled human skin homogenate, 37° C., compound working solution 40 μg/mL mixed with equal volume of homogenate
Protocol: To identify which of the dipeptides was readily subject to degradation by proteases and other cell processes in the skin, a number of compounds where tested in a skin homogenate study as described below and the results are listed in table 3.
Dermatomed human skin from multiple skin donors was pooled, homogenized, and adjusted to a tissue concentration of 100 mg tissue per mL of homogenate. The homogenate was used immediately following preparation without any additional freeze/thaw cycles. Working solutions of each compound were prepared in Dulbecco's phosphate-buffered saline (DPBS) at 40 μg/mL. All solutions were pre-heated to 37° C. Equal volumes of skin homogenate and compound working solution were combined, mixed, held at 37° C., and sampled at 0, 15, 30, 60, 120, and 240 minutes. Samples were quenched with acidic acetonitrile, centrifuged, and prepared for LC-MS/MS analysis. Peak areas of each compound at each time-point were determined by LC-MS/MS.
The individual half-life of each dipeptide was determined.
The nature of the experiment should be considered indicative of the relative stability of each of the compounds rather than an absolute correlation to what would happen in vivo. The process of homogenizing the skin is likely to greatly accelerate the degradation. However, it is clear that there is substantial variation in the relative rates for each dipeptide. (See Table 3)

| SMILES | 1 month aqueous stability at 40° C. [2] | 3 month aqueous stability at 40° C. [2] | Half life in skin homogenate [3] | Degree of carbamylation (% relative to HBSS control) [1] |
| --- | --- | --- | --- | --- |
| C[C@H](N)C(=O)O [Alanine, reference compound] | – | – | – | 93.54 % relative to HBSS control |
| Cl.N=C(N)NCCC[C@H](N)C(=O)O [Arg*HCl, reference compound] | – | – | – | 66.1 % relative to HBSS control |
| N=C(N)NCCC[C@H](N)C(=O)O [Arg, Arginine, reference compound] | – | – | – | 52.4 % relative to HBSS control |
| COC(=O)[C@H](Cc1ccccc1)NC(=O)[C@@H](N)CC(=O)O [Aspartame] (H-Asp-Phe-OMe) | – | – | – | 30.4 % relative to HBSS control |
| CC(C)C[C@H](NC(=O)[C@@H](O)[C@H](N)Cc1ccccc1)C(=O)O [Bestatin, reference compound] | – | – | – | 53.4 % relative to HBSS control |
| NC(=O)NCCC[C@H](N)C(=O)O [Citrulline, reference compound] | – | – | – | 81.7 % relative to HBSS control |
| CN(CC(=O)O)C(=N)N [Creatine, reference compound] | – | – | – | 103.92 % relative to HBSS control |
| NC(=O)CC[C@H](N)C(=O)O [Glutamine, reference compound] | – | – | – | 74.39 % relative to HBSS control |
| C[C@H](NC(=O)CN)C(=O)O [Gly-Ala] (H-Gly-Ala-OH) | – | – | – | 35.27 % relative to HBSS control |
| NCC(=O)N[C@@H](CCC(N)=O)C(=O)O [Gly-Gln] (H-Gly-Gln-OH) | – | – | – | 32.99 % relative to HBSS control |
| NCC(=O)NCC(=O)O [Gly-Gly] (H-Gly-Gly-OH) | – | – | >8 h | – |
| CC(C)C[C@H](NC(=O)[C@@H](N)Cc1cnc[nH]1)C(=O)O [His-leu] (H-His-Leu-OH) | – | – | – | 27.18 % relative to HBSS control |
| N[C@@H](Cc1c[nH]cn1)C(=O)O [Histidine, reference compound] | – | – | – | 61.1 % relative to HBSS control |
| NCCCC[C@H](N)C(=O)O [Lysine, reference compound] | – | – | – | 71.63 % relative to HBSS control |
| NCCNCC(=O)O [N-β-aminoethyl-Gly] | – | – | – | 29.7 % relative to HBSS control |
| NCCS(=O)(=O)O [Taurine, reference compound] | – | – | – | 58.17 % relative to HBSS control |
| NC(N)=NCCC[C@H](NC(=O)[C@@H](N)Cc1ccc(O)cc1)C(=O)O [Tyr-Arg] | – | – | – | 25.96 % relative to HBSS control |

The next lines start with results.

| 1 month aqueous stability at 40° C. [2] | 3 month aqueous stability at 40° C. [2] | Half life in skin homogenate [3] | SMILES | Degree of carbamylation (% relative to HBSS control) [1] |
| --- | --- | --- | --- | --- |
| 98.4 | 99.7 | – | NCCC(=O)N[C@@H](Cc1c[nH]cn1)C(=O)O [Ala(b)-His (L-Carnosine)] | 72.63 % relative to HBSS control |
| – | – | 0.383 h | C[C@H](N)C(=O)N[C@@H](C)C(=O)O [Ala-Ala] (H-Ala-Ala-OH) | – |
| – | – | >8 h | C[C@H](N)C(=O)N[C@H](C)C(=O)O [Ala-D-Ala] (H-Ala-[dA]-OH) | – |
| – | – | >8 h | C[C@@H](N)C(=O)NCC(=O)O [Ala-Gly (D)] (H-[dA]-Gly-OH) | – |
| – | – | 1 h | C[C@H](N)C(=O)NCC(=O)O [Ala-Gly] (H-Ala-Gly-OH) | – |
| – | – | 1.28 h | N[C@@H](CC(=O)O)C(=O)N[C@@H](Cc1ccccc1)C(=O)O [Asp-Phe] (H-Asp-Phe-OH) | – |
| – | – | >8 h | NCC(=O)N[C@@H](CC(=O)O)C(=O)O [Gly-Asp] (H-Gly-Asp-OH) | – |
| 99.0 | 99.7 | – | NCC(=O)N[C@@H](CCC(=O)O)C(=O)O [Gly-Glu] (H-Gly-Glu-OH) | – |
| 99.8 | 79.3 | >8 h | NCC(=O)N[C@@H](Cc1cnc[nH]1)C(=O)O [Gly-His] (H-Gly-His-OH) | 22.6 % relative to HBSS control |
| – | – | >8 h | NCC(=O)N1CCC[C@H]1C(=O)O [Gly-Pro] (H-Gly-Pro-OH) | – |
| – | – | >8 h | CN(CC(=O)O)C(=O)CN [Gly-Sar] (H-Gly-[Sar]-OH) | – |
| 97.8 | 70.7 | – | NCC(=O)NC(CO)C(=O)O (stereo not shown) [Gly-Ser] | 33.1 % relative to HBSS control |
| – | – | 0.8 h | CC(C)[C@H](NC(=O)CN)C(=O)O [Gly-Val] (H-Gly-Val-OH) | – |
| 99.1 | 102.0 | 2.25 h | CC[C@H](C)[C@H](N)C(=O)N1CCC[C@H]1C(=O)O [Ile-Pro] (H-Ile-Pro-OH) | 41.4 % relative to HBSS control |
| – | – | 0.867 h | NCCCC[C@H](N)C(=O)N1CCC[C@H]1C(=O)O [Lys-Pro] (H-Lys-Pro-OH) | 28.6 % relative to HBSS control |
| – | – | 1.93 h | O=C(O)[C@@H]1CCCN1C(=O)[C@@H]1CCCN1 [Pro-Pro] (H-Pro-Pro-OH) | – |
| 78.1 | 49.0 | 4.73 h | O=C(O)[C@H](CO)NC(=O)[C@@H]1CCCN1 [Pro-Ser] (H-Pro-Ser-OH) | 41.9 % relative to HBSS control |
| 95.5 | 88.5 | 0.683 h | N[C@@H](CO)C(=O)N1CCC[C@H]1C(=O)O [Ser-Pro] (H-Ser-Pro-OH) | 26.4 % relative to HBSS control |
| – | – | 0.75 h | NC(=O)CC(NC(=O)C(N)Cc1c[nH]c2ccccc12)C(=O)O (stereo not drawn) [Trp-Asn] (H-Trp-Asn-OH; configuration not given here) | – |
| – | – | 1.07 h | N[C@@H](Cc1c[nH]c2ccccc12)C(=O)NCC(=O)O [Trp-Gly] (H-Trp-Gly-OH) | – |
| – | – | 0.567 h | NC(Cc1c[nH]c2ccccc12)C(=O)N1CCCC1C(=O)O (stereo not shown) [Trp-Pro] | – |
| 100.4 | 94.0 | 0.833 h | C[C@H](NC(=O)[C@@H](N)Cc1ccc(O)cc1)C(=O)O [Tyr-Ala] | 26.1 % relative to HBSS control |
| – | – | 0.483 h | N[C@@H](Cc1ccc(O)cc1)C(=O)N1CCC[C@H]1C(=O)O [Tyr-Pro] (H-Tyr-Pro-OH) | 32.8 % relative to HBSS control |
| 90.5 | 80.9 | 0.65 h | CC(C)[C@H](N)C(=O)N1CCC[C@H]1C(=O)O [Val-Pro] (H-Val-Pro-OH) | 22.1 % relative to HBSS control |
| 100.7 | 98.2 | <0.125 h | CC(C)[C@H](N)C(=O)N[C@@H](Cc1ccc(O)cc1)C(=O)O [Val-Tyr] (H-Val-Tyr-OH) | 28.9 % relative to HBSS control |
